From patent US20230074545A1, “TREATMENT OF CANCER WITH CDK12/13 INHIBITORS” (Kinnate Biopharma Inc., priority 2019, published 2023)

Experiments:
[1] = tested on: RNA polymerase II; assay: Inhibition of phosphorylation of RNA polymerase II in NCI-H82 cells; format: cell-based; details: Homo sapiens, 2 hours, phosphorylated/total RNA polymerase II
Method: CDK12 and CDK13 phosphorylate RNA polymerase II. The ability of compound 1 to inhibit phosphorylation of RNA polymerase II was analyzed in NCI-H82 cells. 200,000 cells were plated in each well of a 96 well MSD plate. Cells were treated with compound 1, THZ531 (a positive control), or E9 at concentrations between 4 μM to 126.4 pM (0.5 log serial dilutions) for 2 hours. THZ531 and E9 are further discussed in Gao et al, Cell Chemical Biology 2017. The amount of phosphorylated RNA polymerase II and the total amount of RNA polymerase II was analyzed using antibodies. The values were normalized by taking the ratio of the phosphorylated RNA polymerase II to the total RNA polymerase II. As depicted in FIG. 3A (THZ531), FIG. 3B (Compound 1), and Table 6, increasing the concentration of compound 1 results in a dose-specific increase in the inhibition of phosphorylation of RNA polymerase II.

[2] = tested on: BRCA1; assay: DDR gene expression (qPCR) in HCC70 cells; format: cell-based
Method: HCC70 (ATCC CRL-2315) cells in 96-well plate format were treated with either DMSO or compound 1 for 2 hours. After compound treatment was done for 2 hours, the plates were washed by PBS once, then fresh culture medium was added to the cells and cells were incubated for 4, 10, 22, 46, 70 hours respectively. At each time point (4, 10, 22, 46, 70 hours after 2 h washout) RNA extraction was done according to manufacturer's instructions as follows. RNA Extraction and qPCR was done using the Ambion Cell to CT kit (Cat #AM1728). Briefly, cells were removed from the incubator, washed once in PBS, lysed by adding 50 μL Lysis Solution from the kit, mixed 5 times and 5 μL Stop Solution was added to the well. All actions were done using RNAase and DNAase free labware.
The Reverse Transcription Reaction mix was then prepared. All reagents were kept in an ice-water bath during the whole operation. […]
The setting of QuantStudio®5 Real-Time qPCR System was shown in the following figure and the fluorescence gain was set at 1×.
Data Analysis was done according to the QuantStudio5 Software. Threshold of signal was calculated by QuantStudio 5 software using the default setting. The relative gene expression was evaluated using the following formulas: […]
Gene expression was detected using qPCR with the Taqman (Applied Biosystems, ThermoFisher Scientific; Carlsbad, Calif.) probe listed in Table 7. […]

[3] = tested on: HCC70 tumors; assay: HCC70 mouse xenograft model of triple-negative breast cancer; format: in vivo, CB-17 SCID female mice; details: compared to vehicle control
From the text: To test the efficacy of the compounds in vivo, studies were done in mouse xenografts. For all studies, general procedures for animal care and housing were done in accordance with the standard, Commission on Life Sciences, National Research Council, Standard operating procedures (SOPs) of Pharmaron, Inc (Beijing, China). The mice were kept in laminar flow rooms at constant temperature and humidity with 3-5 mice in each cage with bedding changed once weekly. Animals were housed in polycarbonate cage which is in the size of 300×180×150 mm^3 and in an environmentally monitored, well-ventilated room maintained at a temperature of (22±3° C.) and a relative humidity of 40%-70% on a 12 hour:12 hour light:dark cycle with full spectrum lighting. […]
Each mouse was inoculated subcutaneously on the right flank with HCC70 tumor cells (5×10^6) in 0.1 ml of RPMI-1640 Medium and Matrigel mixture (1:1 ratio) for tumor development. […] All study animals were monitored not only tumor growth but also behavior such as mobility, food and water consumption (by cage side checking only), body weight (BW), eye/hair matting and any other abnormal effect. Any mortality and/or abnormal clinical signs were recorded.
The measurement of tumor size was conducted twice weekly with a caliper and recorded. […]
Protocol-required measurements and observations were recorded manually onto excel spread sheets. […]

C=CC(=O)Nc1ccc(C(=O)N2CC[C@@H](Nc3ncc(Cl)c(OC)n3)C2)cc1 [Compound 1, (R)-N-(4-(3-((5-chloro-4-methoxypyrimidin-2-yl)amino)pyrrolidine-1-carbonyl)phenyl)acrylamide]
IC50 [1]: 12.5 nM | levels of BRCA1 expression ([2]; 2 hours treatment then washout, qPCR): reduction in levels of BRCA1 expression | time of strongest reduction in gene expression (BRCA1) ([2]; after treatment (post-washout)): 10 h

C=CC(=O)Nc1ccc(C(=O)N2CC[C@@H](Nc3ncc(C#N)cn3)C2)cc1 [Compound 4, (R)-N-(4-(3-((5-cyanopyrimidin-2-yl)amino)pyrrolidine-1-carbonyl)phenyl)acrylamide]
T/C ([3]; 20 mg/kg intravenously biweekly for 14 days): −37% | T/C ([3]; 25 mg/kg intravenously biweekly for 14 days): −39%
